Values joined by “and” are separate entries in the source; they are usually repeats but may differ in a detail not shown here. Equal values may be shown once.
Target: T1, Muscarinic acetylcholine receptor M4 (Homo sapiens, UniProt P08173)
T1 sequence (P08173 whole entry): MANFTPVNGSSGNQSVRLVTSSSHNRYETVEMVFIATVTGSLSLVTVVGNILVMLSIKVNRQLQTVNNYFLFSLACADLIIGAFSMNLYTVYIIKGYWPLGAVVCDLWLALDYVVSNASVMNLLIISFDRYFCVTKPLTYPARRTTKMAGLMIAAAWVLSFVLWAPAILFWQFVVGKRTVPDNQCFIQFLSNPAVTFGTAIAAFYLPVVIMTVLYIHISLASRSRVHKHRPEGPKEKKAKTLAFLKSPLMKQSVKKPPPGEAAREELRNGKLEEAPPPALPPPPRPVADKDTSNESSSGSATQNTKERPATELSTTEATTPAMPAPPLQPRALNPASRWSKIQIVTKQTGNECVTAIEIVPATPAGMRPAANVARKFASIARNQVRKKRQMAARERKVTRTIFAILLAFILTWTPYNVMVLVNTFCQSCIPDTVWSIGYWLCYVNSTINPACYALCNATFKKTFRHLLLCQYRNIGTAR

| SMILES | Ki |
| --- | --- |
| O[Si](CCCN1CCCCC1)(c1ccccc1)C1CCCCC1 (configuration not stated) [HHSiD] | 0.00416 µM and 0.0166 µM |
| COc1ccccc1CNCCCCCCNCCCCCCCCNCCCCCCNCc1ccccc1OC [METHOCTRAMINE] | 0.0661 µM and 0.0724 µM |
